Tested on: Aβ peptides (Aβ40, Aβ42) in the plasma and brain of TgCRND8 mice
Assay: Short term treatment (14 or 28 days) in TgCRND8 mice: Aβ levels in plasma and brain by ELISA;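 for Aβ40 Change Insoluble: symbols grade percent change in Aβ versus untreated control with plus for increase and minus for decrease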;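 for Aβ40 Change Soluble: symbols grade percent change in Aβ versus untreated control with plus for increase and minus for decrease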;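 for Aβ42 Change Insoluble: symbols grade percent change in Aβ versus untreated control with plus for increase and minus for decrease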
Format: in vivo, mouse
Settings: for Aβ40 Change / Aβ42 Change: plasma
Protocol: The short term therapeutic effect of 19 compounds of the invention was studied. These compounds were administered over a 14 or 28 day period at the end of which the levels of Aβ peptides in the plasma and brain of TgCRND8 animals were determined.
Male and female transgenic mice from the 3rd and 4th B6C3F1 generations were used in this example and given daily subcutaneous or oral administrations of one of a series of compounds for 14 or 28 days. The following abbreviations are used to designate these animals from the 3rd and 4th generation backcross in the present protocol: TgCRND8-2.B6C3F1(N3); TgCRND8-2.B6C3F1 (N4).
Baseline animals (Group 1) consisted of naive TgCRND8-2. B6C3F1(N3) at 11±1 weeks of age. These mice were used to determine the Aβ levels in the plasma and brain of naive transgenic animals at the initiation of treatment.
Starting at 11 weeks of age (±1 week) animals received daily administration of their respective treatment for a period of 14 or 28 days (groups 2-21), at a dose of 250 mg/kg at 10 ml/kg or of vehicle only (water; group 2) or 1% methyl cellulose only (group 21). The route of administration was subcutaneous for water-soluble compounds and oral for compounds solubilized in methylcellulose 1%. (MC 1%). At the end of the treatment periods, plasma and perfused brains were collected for quantification of Aβ levels.
At 11±1 weeks of age for the Baseline group, and at the end of the treatment period (14 or 28 days) for Groups 2 to 21, at 24 hours after the last compound administration animals were sacrificed and samples collected. An approximate blood volume of 500 μl was collected from the orbital sinus and kept on ice until centrifugation at 4° C. at a minimum speed of 3,000 rpm for 10 minutes. Plasma samples were immediately frozen and stored at −80° C. pending analysis. The brains were removed, frozen, and stored at −80° C. awaiting analysis.
Brains were weighted frozen and homogenized with 4 volumes of ice cold 50 mM Tris-Cl pH 8.0 buffer with protease inhibitor cocktail (4 mL of buffer for 1 g of wet brain). Samples were spun at 15000 g for 20 minutes and the supernatants were transferred to fresh tubes. One hundred fifty (150) μl from each supernatant were mixed with 250 μl of 8M guanidine-HCL/50 mM Tris-HCL pH 8.0 (ratio of 0.6 vol supernatant:1 vol 8M guanidium/Tris-HCL 50 mM pH8.0) and 400 μL 5 M guanidium/Tris-HCL 50 mM pH8.0 were added. The tubes were vortexed for 30 seconds and frozen at −80° C. In parallel, pellets were treated with 7 volumes of 5 M guanidine-HCL/50 mM Tris-HCL pH 8.0 (7 mL of guanidine for 1 g of wet brain), vortexed for 30 seconds and frozen at −80° C. Samples were thawed at room temperature, sonicated at 80° C. for 15 minutes and frozen again. This cycle was repeated 3 times to ensure homogeneity and samples were returned to −80° C. pending analysis.
Aβ levels were evaluated in plasma and brain samples by ELISA using Human Aβ40 and Aβ42 Fluorometric ELISA kits from Biosource (Cat. No. 89-344 and 89-348) according to manufacturer's recommended procedures. In short, samples were thawed at room temperature, sonicated for 5 minutes at 80° C. (sonication for brain homogenates; no sonication for plasma samples) and kept on ice. Aβ peptides were captured using 100 μl of the diluted samples to the plate and incubated without shaking at 4° C. overnight. The samples were aspirated and the wells were rinsed 4 times with wash buffer obtained from the Biosource ELISA kit. The anti-Aβ40 or anti-Aβ42 rabbit polyclonal antiserum (specific for the Aβ40 or Aβ42 peptide) was added (100 μl) and the plate was incubated at room temperature for 2 hours with shaking. The wells were aspirated and washed 4 times before adding 100 μl of the alkaline phosphatase labeled anti-rabbit antibody and incubating at room temperature for 2 hours with shaking. The plates were then rinsed 5 times and the fluorescent substrate (100 μl) was added to the plate. […]

[1] = brain homogenate, Day 14, vehicle group, 250 mg/kg daily
[2] = brain homogenate, Day 28, vehicle group, 250 mg/kg daily
[3] = Day 14, vehicle (water) group, 250 mg/kg daily subcutaneous
[4] = brain homogenate, Day 28, vehicle group, 250 mg/kg daily, total, not soluble/insoluble
[5] = Day 28, vehicle (water) group, 250 mg/kg daily subcutaneous
[6] = brain homogenate, Day 14, methylcellulose group, daily oral
[7] = brain homogenate, Day 28, methylcellulose group, daily oral

Structure (SMILES) | Aβ40 Change Insoluble [1] | Aβ40 Change Insoluble [2] | Aβ42 Change Insoluble [1] | Aβ40 Change Soluble [2] | Aβ42 Change Insoluble [2] | Aβ42 Change Soluble [2] | Aβ42 Change Soluble [1] | also measured
CCC(CC)NCCCS(=O)(=O)O [DD] | − (Decreases in the levels of Aβ of 5 to 19%) | − (Decreases in the levels of Aβ of 5 to 19%) |  |  |  |  |  | 
COc1ccc([C@H](C)NCCCS(=O)(=O)O)cc1 [DZ] |  | −− (decreases of 20 to 38%) | −− (decreases of 20 to 38%) | − (Decreases in the levels of Aβ of 5 to 19%) | −− (decreases of 20 to 38%) | −− (decreases of 20 to 38%) |  | 
O=S(=O)(O)CCCNC1CC2CCC1C2 (centres unmarked) [BY] | +++ (increases of 70% or higher) | +++ (increases of 70% or higher) |  | + (increases in the levels of Aβ (relative to untreated control) of 20 to 39%) | +++ (increases of 70% or higher) |  | +++ (increases of 70% or higher) | Aβ40 Change Soluble [1]: +++ (increases of 70% or higher); Aβ40 Change [3]: + (increases in the levels of Aβ (relative to untreated control) of 20 to 39%); Aβ42 Change [3]: + (increases in the levels of Aβ (relative to untreated control) of 20 to 39%)
CC(C)(NCCCS(=O)(=O)O)c1ccccc1 [DM] | + (increases in the levels of Aβ (relative to untreated control) of 20 to 39%) | −− (decreases of 20 to 38%) | − (Decreases in the levels of Aβ of 5 to 19%) | − (Decreases in the levels of Aβ of 5 to 19%) | −− (decreases of 20 to 38%) | −− (decreases of 20 to 38%) | − (Decreases in the levels of Aβ of 5 to 19%) | 
COC[C@H](NCCCS(=O)(=O)O)[C@@H](O)c1ccccc1 [EG] | −− (decreases of 20 to 38%) | −− (decreases of 20 to 38%) | −− (decreases of 20 to 38%) |  | −− (decreases of 20 to 38%) |  | −− (decreases of 20 to 38%) | Aβ40 Change Soluble [1]: − (Decreases in the levels of Aβ of 5 to 19%)
CCNCCCS(=O)(=O)O [CV] |  |  |  |  |  |  |  | Aβ40 Change (total level) (brain homogenate, Day 14, vehicle group, 250 mg/kg daily, total, not soluble/insoluble): − (Decreases in the levels of Aβ of 5 to 19%); Aβ40 Change (total level) [4]: ++ (increases of 40 to 69%); Aβ42 Change (total level) [4]: +++ (increases of 70% or higher); Aβ40 Change [3]: + (increases in the levels of Aβ (relative to untreated control) of 20 to 39%); Aβ42 Change [3]: ++ (increases of 40 to 69%); Aβ40 Change [5]: ++ (increases of 40 to 69%); Aβ42 Change [5]: ++ (increases of 40 to 69%)
O=S(=O)(O)CCCNCC(O)c1ccccc1 (centres unmarked) [DY] | −− (decreases of 20 to 38%) | −−− (decreases of 39% or more) | −− (decreases of 20 to 38%) |  | −− (decreases of 20 to 38%) | − (Decreases in the levels of Aβ of 5 to 19%) |  | 
CC12CC3CC(C)(C1)CC(NCCCS(=O)(=O)O)(C3)C2 [CY] |  |  |  |  |  |  |  | Aβ40 Change Soluble [6]: − (Decreases in the levels of Aβ of 5 to 19%); Aβ42 Change Insoluble [6]: ++ (increases of 40 to 69%); Aβ42 Change Soluble [6]: +++ (increases of 70% or higher); Aβ40 Change Insoluble [7]: +++ (increases of 70% or higher); Aβ40 Change Soluble [7]: ++ (increases of 40 to 69%); Aβ42 Change Insoluble [7]: + (increases in the levels of Aβ (relative to untreated control) of 20 to 39%); Aβ42 Change Soluble [7]: +++ (increases of 70% or higher); Aβ42 Change (Day 28, methylcellulose group, daily oral): + (increases in the levels of Aβ (relative to untreated control) of 20 to 39%)
CC(C)(CO)NCCCS(=O)(=O)O [DH] | −− (decreases of 20 to 38%) | − (Decreases in the levels of Aβ of 5 to 19%) | −−− (decreases of 39% or more) |  | − (Decreases in the levels of Aβ of 5 to 19%) |  | −−− (decreases of 39% or more) | 
O=S(=O)(O)CC(O)CNC1CCCCC1 (centres unmarked) [DC] | −− (decreases of 20 to 38%) | + (increases in the levels of Aβ (relative to untreated control) of 20 to 39%) | −− (decreases of 20 to 38%) | − (Decreases in the levels of Aβ of 5 to 19%) | +++ (increases of 70% or higher) | ++ (increases of 40 to 69%) | + (increases in the levels of Aβ (relative to untreated control) of 20 to 39%) | Aβ40 Change [3]: ++ (increases of 40 to 69%); Aβ42 Change [3]: ++ (increases of 40 to 69%); Aβ40 Change [5]: ++ (increases of 40 to 69%)
C#CC1(NCCCS(=O)(=O)O)CCCCC1 [DX] | −− (decreases of 20 to 38%) | −− (decreases of 20 to 38%) | − (Decreases in the levels of Aβ of 5 to 19%) |  | −− (decreases of 20 to 38%) | − (Decreases in the levels of Aβ of 5 to 19%) |  | 
CC1CC(NCCCS(=O)(=O)O)CC(C)(C)C1 (centres unmarked) [ED] | + (increases in the levels of Aβ (relative to untreated control) of 20 to 39%) | −− (decreases of 20 to 38%) |  | − (Decreases in the levels of Aβ of 5 to 19%) | − (Decreases in the levels of Aβ of 5 to 19%) | − (Decreases in the levels of Aβ of 5 to 19%) |  | Aβ40 Change Soluble [1]: − (Decreases in the levels of Aβ of 5 to 19%)

— patent US8044100B2, “Methods and compositions for treating amyloid-related diseases” (Bellus Health Inc., priority 2004, dated 2011)
